Data reported in patent US8765166B2, “Drug delivery devices for delivery of ocular therapeutic agents” (Aerie Pharmaceuticals, Inc., priority 2010, dated 2014).
In brackets after ≈: the same amount, converted by molar mass. Counter-ions that a name gives are not always drawn.

Assays:
physchem = conditions: for solubility: aqueous buffer
Description: The active agent may be any active agent suitable to treat the desired condition. […] Examples include, but are not limited to, acetazolamide, dorzolamide HCl, timolol maleate, and ethacrynic acid sodium salt.

[1] = topical ocular use; cited from earlier work

| Compound | solubility class (physchem) | solubility (physchem) [mg/mL] | other results |
| --- | --- | --- | --- |
| O=C(O)CCCCCC[C@@H]1[C@@H](CC[C@@H](O)c2cc3ccccc3s2)[C@H](O)C[C@@H]1O [AR-102 free acid, 7-((1R,2R,3R,5S)-2-((R)-3-(benzo[b]thiophen-2-yl)-3-hydroxypropyl)-3,5-dihydroxycyclopentyl)heptanoic acid] | moderate solubility | – | – |
| C[C@@H](N)c1ccc(C(=O)Nc2ccnc3[nH]ccc23)cc1 [Y-39983 Free Base] | Moderately Soluble | – | – |
| CC(=O)Nc1nnc(S(N)(=O)=O)s1 [acetazolamide] | – | > 1 | – |
| CCNC(=O)CCC/C=C\C[C@@H]1[C@@H](/C=C/[C@@H](O)CCc2ccccc2)[C@H](O)C[C@@H]1O [bimatoprost] | low solubility | – | – |
| Brc1c(NC2=NCCN2)ccc2nccnc12 [brimonidine free base] | – | – | solubility in PBS (physchem): 0.36 mg/mL (≈ 1230 µM) |
| C[C@@H]1C[C@H]2[C@@H]3CCC4=CC(=O)C=C[C@]4(C)[C@@]3(F)[C@@H](O)C[C@]2(C)[C@@]1(O)C(=O)COP(=O)(O)O [dexamethasone sodium phosphate] | high solubility | – | – |
| C[C@@H]1C[C@H]2[C@@H]3CCC4=CC(=O)C=C[C@]4(C)[C@@]3(F)[C@@H](O)C[C@]2(C)[C@@]1(O)C(=O)CO [dexamethasone] | low solubility | < 0.3 | – |
| CCN[C@H]1C[C@H](C)S(=O)(=O)c2sc(S(N)(=O)=O)cc21 [dorzolamide HCl] | high solubility | > 1 | – |
| C=C(CC)C(=O)c1ccc(OCC(=O)O)c(Cl)c1Cl [ethacrynic acid sodium salt] | high solubility | > 1 | – |
| O=C(O)CCC/C=C\C[C@@H]1[C@@H](CC[C@@H](O)CCc2ccccc2)[C@H](O)C[C@@H]1O [latanoprost free acid] | – | – | solubility in PBS (physchem): 0.8 mg/mL (≈ 2050 µM) |
| CC(C)OC(=O)CCC/C=C\C[C@@H]1[C@@H](CC[C@@H](O)CCc2ccccc2)[C@H](O)C[C@@H]1O [latanoprost isopropyl ester] | low solubility | < 0.3 | topical effective concentration [1]: 0.05 milligrams/mL |
| CC[C@H](C)C(=O)O[C@H]1C[C@@H](C)C=C2C=C[C@H](C)[C@H](CC[C@@H]3C[C@@H](O)CC(=O)O3)[C@H]21 [lovastatin] | – | < 0.3 | – |
| CC(C)(C)NC[C@H](O)COc1nsnc1N1CCOCC1 [timolol maleate] | high solubility | > 1 | – |
| CC(C)OC(=O)CCC/C=C\C[C@@H]1[C@@H](/C=C/[C@@H](O)COc2cccc(C(F)(F)F)c2)[C@H](O)C[C@@H]1O [travoprost isopropyl ester] | low solubility | < 0.3 | – |
| brimonidine tartrate | – | – | solubility class (physchem; PBS at pH=7.2-7.4, listed as brimonidine D-tartrate salt): high solubility; solubility in water (physchem; in water at pH 7.7): 0.6 mg/mL |
